Measured values as given in patent US20220127297A1, “Novel Antibacterial 3"-Derivatives Of 4,6-Disubstituted 2,5-Dideoxystreptamine Aminoglycoside Antibiotics” (AGILeBiotics B.V., priority 2018, published 2022).
Converted amounts (≈) assume the structure as drawn. Read-outs that look alike come from different tables or passages of the source.

How the values were obtained:
K. pneumoniae DSM 26371 = assay: MIC 50, broth micro-dilution, DSM strains; assay type: cell-based, Klebsiella pneumoniae
Excerpt: (§1) 3.2 Against Selected Bacteria of the ESKAPE Panel and Enterococcus faecalis (DSM Strains)
(§2) Tested reference compounds. Amikacin sulfate (Cat. No. 01693, Chem-Impex), Gentamicin sulfate (Cat. No. G4918, Sigma Aldrich).
(§3) Microbial strains. Enterococcus faecalis DSM 2570, Klebsiella pneumoniae DSM 26371, Acinetobacter baumannii DSM 105126, Enterobacter cloacae 3MRGN (clinical bronchial aspirate isolate).
(§4) Culture media and equipment. BBL™ Mueller Hinton Broth 2 (Lot. BCBW1143, Cat. No. 70192, Sigma); Trypcase Soy Blood-agar plates (Cat. No. 43001, Biomérieux); Cryoinstant (contains 15% glycerol; Cat. No. 822070ZA, VWR International); GasPak™ EZ Standard Incubation Container (Cat. No. 260671, Becton Dickinson); GasPak™ EZ Campy Container System Sachets (Cat. No. 260680, Becton Dickinson); 96-well deep well plate, 1 mL (Cat. No. 0030506.200, Eppendorf); Plate lid (Cat. No. 0030131.525, Eppendorf); 96-well plate, F-bottom (Cat. No. 260860, Nunc); Incubator (Sartorius Certomat BS-1); Laminar flow (Heraeus HS12); UV/VIS meter (Perkin Elmer Lambda Bio+); Platereader (Tecan Infinite M200 Pro).
(§5) Compound preparation. Compounds were prepared in MH2 media at a concentration of 5 mM and stored at 4° C. For testing, solutions of 128 μM were prepared in MH2, for tests against E. faecalis a solution of 512 μM was prepared. Out of these working solutions, 400 μL was transferred to wells in the first column of 96-well deep well plates. Each compound was transferred in triplicate. Plates were previously filled with 200 μL of MH2 media in all wells except for the wells in the first column. After compound and antibiotic addition, the compounds were serial two-fold diluted by transferring 200 μL from the first to the second column, then from the second to the third column and so on. Finally, 200 μL was removed from the last column.
(§6) Inoculum preparation. Microorganisms used were all revived from 15% glycerol storage in Croinstant tubes at −28° C. by plating them on blood agar plates. A. baumanni, and E. cloacae were grown aerobically at 37° C., E. faecalis was grown microaerophilically at 37° C., and K. pneumoniae was grown aerobically at 37° C. Plates were stored at 4° C. for up to two weeks, after which new plates were prepared from −28° C. A single colony was inoculated in MH2 media and grown at 37° C. and 200 rpm to an optical density (measured by UV/Vis spectroscopy) of 0.6-0.8 at 600 nm. Out of these suspensions, actual inoculums were prepared by diluting them to an optical density of 0.1 in MH2 media. From these inoculums, 200 μL was transferred to each well, resulting in a final compound concentration range of 64 μM-31.3 nM for, K. pneumoniae, A. baumanni, and E. cloacae, and 256 μM-125 nM for E. faecalis. Plates inoculated with E. faecalis were placed inside a GasPak™ Container System with GasPak™ Campy Container System sachets. All plates were incubated at 200 rpm for 18 h under the microorganism culturing conditions mentioned above.
(§7) MIC determination. After 18 h of growth, 200 μL was transferred to a 96-well F-bottom plate. The optical density was determined by a plate reader at 600 nm, with 10 s shaking before reading. Triplicate measurements were averaged, and a growth curve was plotted in Excel. The first column in which the growth reached half the value of maximum growth was determined as the MIC50 value for that particular compound.
(§8) MIC50. The MIC50 of a compound was assigned at which the bacterial growth reached half the value of maximum growth.

E. faecalis DSM 2570 = assay: MIC 50, broth micro-dilution, DSM strains; assay type: cell-based, Enterococcus faecalis
Excerpt: as §1, §2, §3, §4, §5, §6, §7, §8

[1] = Klebsiella pneumoniae, DSM26371, K. pneumoniae DSM 26371, read-out: MIC 50
[2] = Enterococcus faecalis, DSM2570, read-out: MIC 50

Structure (SMILES) | MIC50 (K. pneumoniae DSM 26371; K. pneumoniae DSM 26371) [µM] | MIC50 (E. faecalis DSM 2570) [µM] | MIC50 (K. pneumoniae DSM 26371; [1]) [µM] | MIC50 (E. faecalis DSM 2570; [2]) [µM]
N=C(N)NC1[C@@H](O)C(OC2[C@@H](O)[C@H](O[C@H]3OC(CN)[C@@H](O)[C@H](O)C3N)C(N)C[C@H]2NC(=O)[C@@H](O)CCN)O[C@H](CO)[C@H]1O (stereo partly drawn) [ABX4009, KanaB-AHB-Gua] | 1 (≈ 0.627 µg/mL) | 64 to 128 |  | 
NCC[C@H](O)C(=O)N[C@@H]1C[C@H](N)[C@@H](O[C@H]2O[C@H](CN)[C@@H](O)[C@@H](O)[C@H]2O)[C@H](O)[C@H]1O[C@H]1O[C@H](CO)[C@@H](O)[C@H](N)[C@H]1O [ABX3002, 3′Epi-KanaA-AHB] | 8 (≈ 4.68 µg/mL) | 128 (≈ 75 µg/mL) |  | 
N=C(N)NC1[C@@H](O)C(OC2[C@@H](F)[C@H](O[C@H]3OC(CN)[C@@H](O)[C@H](O)C3N)C(N)C[C@H]2NC(=O)[C@@H](O)CCN)O[C@H](CO)[C@H]1O (stereo partly drawn) [ABX4006, KanaB-AHB-F-Gua] |  |  | 0.125 (≈ 0.0786 µg/mL) | 16 to 32 (≈ 10.1 to 20.1 µg/mL)
N=C(NC[C@H]1CNCCO1)NC1[C@@H](O)C(OC2[C@@H](F)[C@H](O[C@H]3OC(CN)[C@@H](O)CC3N)C(N)C[C@H]2NC(=O)[C@@H](O)CCN)O[C@H](CO)[C@H]1O (stereo partly drawn) [ABX5043, Tobra-AHB-F-Gua (R) morpholin-2-yl methyl] |  |  | 0.5 (≈ 0.356 µg/mL) | 16 (≈ 11.4 µg/mL)
NCCC(O)C(=O)NC1CC(N)C(OC2OC(CN)C(O)C(O)C2O)C(F)C1OC1OC(CO)C(O)C(N)C1O (stereo not drawn) [ABX3005, 3′Epi-KanaA-AHB-F] | 1 (≈ 0.588 µg/mL) | 64 (≈ 37.6 µg/mL) |  | 
NCC[C@H](O)C(=O)N[C@@H]1CC(N)[C@@H](O[C@H]2OC(CN)[C@@H](O)CC2N)[C@H](F)C1OC1O[C@H](CO)[C@@H](O)C(N)[C@H]1O (stereo partly drawn) [ABX5024, Tobra-AHB-F] | 1 (≈ 0.571 µg/mL) | 16 to 32 |  | 
NCCC(O)C(=O)NC1CC(N)C(OC2OC(CN)C(O)C(O)C2N)C(F)C1OC1OC(CO)C(O)C(N)C1O (stereo not drawn) [ABX4007, KanaB-AHB-F] | 0.5 (≈ 0.293 µg/mL) | 32 to 64 |  | 
NCC[C@H](O)C(=O)N[C@@H]1CC(N)[C@@H](O[C@H]2OC(CN)[C@@H](O)CC2N)[C@H](O)C1OC1O[C@H](CO)[C@@H](O)C(N)[C@H]1O (stereo partly drawn) [ABX5004, Tobra-AHB] | 1 (≈ 0.569 µg/mL) | 32 (≈ 18.2 µg/mL) |  | 
N=C(NC[C@@H]1CNCCO1)NC1[C@@H](O)C(OC2[C@@H](F)[C@H](O[C@H]3OC(CN)[C@@H](O)CC3N)C(N)C[C@H]2NC(=O)[C@@H](O)CCN)O[C@H](CO)[C@H]1O (stereo partly drawn) [ABX5040, Tobra-AHB-F-Gua (S) morpholin-2-yl methyl] |  |  | 0.5 (≈ 0.356 µg/mL) | 16 (≈ 11.4 µg/mL)
NCC[C@H](O)C(=O)N[C@@H]1C[C@H](N)[C@@H](O[C@H]2O[C@H](CN)[C@@H](O)[C@H](O)[C@H]2O)[C@H](O)[C@H]1O[C@H]1O[C@H](CO)[C@@H](O)[C@H](N)[C@H]1O [Amikacin, amikacin, reference compound] |  |  | 0.5 (≈ 0.293 µg/mL) | > 64
NCC[C@H](O)C(=O)N[C@@H]1CC(N)[C@@H](O[C@H]2OC(CN)[C@@H](O)[C@@H](O)C2N)[C@H](F)C1OC1O[C@H](CO)[C@@H](O)C(N)[C@H]1O (stereo partly drawn) [ABX4003, 3′Epi-KanaB-AHB-F] | 0.5 (≈ 0.293 µg/mL) | 64 (≈ 37.5 µg/mL) |  | 
N=C(NC[C@H]1CCNC1)NC1[C@@H](O)C(OC2[C@@H](F)[C@H](O[C@H]3OC(CN)[C@@H](O)CC3N)C(N)C[C@H]2NC(=O)[C@@H](O)CCN)O[C@H](CO)[C@H]1O (stereo partly drawn) [ABX5042, Tobra-AHB-F-Gua (S) pyrrolidine-3-ylmethyl] |  |  | 0.5 (≈ 0.348 µg/mL) | 8 (≈ 5.57 µg/mL)
